Test results published in patent US20240226255A9, “COMPOSITIONS AND METHODS FOR ACTIVATING NK CELLS” (The Regents of the University of California, priority 2021, published 2024).

Columns and labels:
[1] = tested on: vector-alone transfected HEp2 cells; assay: 51Cr release: NK cell lysis of Sulindac treated vector-alone transfected HEp2 cells; type: cell-based; settings: Sulindac 50-200 μm for 3-4 hours, vs non-treated HEp2 cells
Procedure: . (FIG. 17A) 4×10^6 vector-alone transfected HEp2 cells were labeled with ^51Cr for 1 hour at 37° C. […] Treatment of NK cells with IL-2 was carried out for 8-12 hours before their addition to the target cells. […] After an overnight incubation the cells were washed to remove the drugs, and the tumor cells were then co-cultured in the presence of untreated and IL-2 (500 u/ml) treated NK cells. After 48 hours of incubation the supernatants were removed from the NK-HEp2 cell co-cultures and assayed for released GM-CSF.

[2] = tested on: BM cells, splenocytes, spleen-purified NK cells, oral gingiva cells; assay: IFN-γ ELISA of IL-2 cultured tissue cells from mice given ZOL or NaCl, then molar extraction; type: in vivo; settings: for ZOL-induced decrease in IFN-γ: oral tooth extraction site
Procedure: (§1) 7-week old female WT mice, and female Rag2^−/− mice (B6(Cg)-Rag2tm1.1Cgn/J null mutation in recombination-activating gene-2 resulting in the deficiency of B and T lymphocytes) were purchased from the Jackson Laboratory, Bar Harbor, ME. The UCLA Animal Research Committee reviewed and approved all experimental protocols involving animals (ARC 1997-136). Female WT mice and Rag2^−/− mice were injected with the single injection of 500 μg/kg ZOL or 0.9% NaCl vehicle solution via tail vein.
(§2) After 1-week of the ZOL and NaCl injection maxillary first molar was extracted as described previously. During the extraction procedure, mice were anesthetized via continuous inhalation of 2-4% isoflurane mixed with oxygen and placed on a custom-made surgical table in a supine position using the fixed positioner on the maxillary incisors. Immediately prior to tooth extraction, 5.0 mg/kg carprofen was subcutaneously injected, and mice received 5.0 mg/kg carprofen injection every 24 h for 48 h. Mice were sacrificed and various tissues were studied 4-weeks after the tooth extraction.
Single cell-suspension from each tissue of WT and Rag2^−/− female mice were activated with IL-2 (10,000 U/ml) for 5 days before the supernatants/culture media were harvested after to determine the levels of IFN-γ secretion. IFN-γ ELISAs were performed and standard curve was generated as described previously. A standard curve was generated by either two or three-fold dilution of recombinant IFN-γ provided by the manufacturer to analyze and obtain the IFN-γ concentration (Biolegend, San Diego, CA).
WT and RAG2 mice were administered with either 0.9% NaCl or ZOL (500 μg/kg) via tail vein followed by maxillary left first molar extraction as described in Materials and Methods section. Week 4 after the tooth extraction, animals were sacrificed, BM cells, splenocytes, splenocytes-purified NK cells and oral gingiva cells were cultured at (1×10^6 cells/ml) each treated with IL-2 (10000 U/ml) for 5 days, after which the supernatants were harvested and the levels of IFN-γ were determined using specific ELISA. Modulation of IFN-7 by ZOL in both WT and RAG2 mice models were determined, and fold change in comparison to NaCl controls was calculated for each tissue.

st63 cells = settings: Rag2−/− mice
Procedure: RAG2 mice were administered with either 0.9% NaCl or ZOL (500 μg/kg) via tail vein followed by maxillary left first molar extraction as described in Materials and Methods section. […] Week 4 after the tooth extraction, animals were sacrificed, BM cells (n=9), splenocytes (n=9), and NK cells purified from splenocytes (n=5) were cultured at (1×10^6 cells/ml) each treated with IL-2 (10000 U/ml) for 5 days, after which the cells were used as effector cells against tumor targets. Cytotoxicity assays were performed using standard 4-hour ^51Cr release assay against st63 cells, and the LU 30/10^6 cells were determined using inverse number of cells required to lyse 30% of st63 cells×100 (FIG. 16B).
Single cell-suspension from each tissue and spleen-purified NK cells from WT and Rag2^−/− mice female mice were activated with IL-2 (10,000 U/ml) for 5 days and were used as effector cells on day 5. […] After that, the supernatants were harvested from each sample and released radioactivity was counted using the gamma counter. The percentage (%) specific cytotoxicity was calculated as follows:
% Cytotoxicity=Experimental cpm−spontaneous cpm/Total cpm−spontaneous cpm • Lytic Units (LU) 30/10^6 was calculated by using the inverse of the number of effector cells needed to lyse 30% of tumor target ST63 cells×100.

[3] = Osteonecrosis of the jaw (ONJ) after ZOL injection and molar extraction; type: in vivo; settings: Rag2−/− mice injected with ZOL
Procedure: as §1, §2

NK cells [4] = assay: IFN-γ ELISA of human NK cell cultures; type: cell-based; settings: LPS 20 ng/mL, 24-48 h
Procedure: (§3) Afterward, the cytotoxicity against OSCSCs was assessed using a standard 4 h ^51Chromium release assay. […] NK cells were prepared as described in FIG. 5A. […] One of several representative experiments is shown in this figure.
(§4) Human NK cells were purified from healthy donors and left untreated or treated with IL-2 (1000 U/mL) or the combination of IL-2 (1000 U/mL) and anti-CD16mAb (3 μg/mL) in the presence of sAJ2 (NK cell:sAJ2, 1:3), autologous monocytes (NK cell:monocytes, 1:1) or the combination of sAJ2 (NK cell:sAJ2, 1:3) and autologous monocytes (NK cell:monocytes, 1:1) for 24-48 h. Afterward, the cytotoxicity against OSCSCs cells was assessed using a standard 4 h ^51Chromium release assay. […] NK cells were prepared as described in FIG. 6A and after the treatment period, the supernatants were removed from the co-cultures and the levels of IFN-γ cytokine were measured with specific ELISA. *P<0.05 was obtained for the differences in cytotoxicity and IFN-γ secretion between human NK cells cultured in media and those treated with sAJ2, monocytes or the combination of sAJ2 and monocytes. One of several representative experiments is shown in this figure (FIG. 8B). […] After an overnight incubation, the supernatants were collected and the levels of IFN-γ, IL-15, IFN-α, and IL-12 were determined by ELISAs in a multiplexed format using Luminex technology (FIG. 8C). […]

NK cells [5] = assay: IFN-γ ELISA of mouse NK cell-monocyte co-cultures ± LPS; type: cell-based; settings: LPS 20 ng/mL
Procedure: (§5) Afterward, NK cells were used as effector cells in a standard 4 h ^51Chromium release assay against YAC-1 cells. […] NK cells were treated as described in (FIG. 4A) and afterward the supernatant was removed from the co-cultures and the levels of IFN-γ secretion were determined using specific ELISAs. *P<0.05 was obtained for differences in secretion of IFN-γ between untreated and LPS-treated NK cells cultured with monocytes from control littermates or those from Cox-2flox/flox;LysMCre/+ mice (FIG. 4B). NK cells were prepared as described in (FIG. 4A) and used as effector cells against DCs derived from monocytes from either wild type or Cox-2flox/flox; LysMCre/+ mice in a standard 4 h ^51Chromium release assay. […] One of several representative experiments is shown in this figure.
(§6) Similar results to those seen with YAC-1 targets were also seen when control and Cox-2flox/flox;LysMCre/+ DCs were used as targets (FIG. 4C).

[6] = tested on: DCs from wild type or Cox-2flox/flox;LysMCre/+ mice; assay: 4 h 51Chromium release assay of mouse NK cells ± LPS against monocyte-derived DCs; type: cell-based; settings: IL-2-treated WT NK cells + WT or KO monocytes
Procedure: as §5, §6

OSCSCs = assay: 4 h 51Chromium release assay of human NK cells against OSCSCs; type: cell-based; settings: LPS 20 ng/mL, 24-48 h
Procedure: as §3, §4

YAC-1 cells = assay: 4 h 51Chromium release assay of mouse NK cells cultured with monocytes ± LPS against YAC-1; type: cell-based; settings: IL-2-treated WT NK cells + monocytes from control WT littermates; LPS 20 ng/mL
Procedure: as §5, §6

CC1=C(CC(=O)O)c2cc(F)ccc2/C1=C\c1ccc([S+](C)[O-])cc1 (stereo not shown) [Sulindac]
NK cell lysis of treated HEp2 cells [1]: increased lysis

O=P(O)(O)C(O)(Cn1ccnc1)P(=O)(O)O [ZOL, zolendronate]
ZOL-induced increase in IFN-γ ([2]; BM, Rag2−/− mice): 50-75%
IFN-γ secretion after ZOL injections ([2]; BM, Rag2−/− mice, vs NaCl): significantly increased
ZOL-induced increase in IFN-γ ([2]; BM, WT mice): 300-500%
Fold change in IFN-γ secretion (ZOL group/NaCl group) ([2]; Bone marrow, Rag2−/− (Rag KO) mice, ZOL 500 μg/kg): 1.5-1.75 fold
Fold change in IFN-γ secretion (ZOL group/NaCl group) ([2]; Bone marrow, WT mice, ZOL 500 μg/kg tail vein, week 4 after tooth extraction, cells + IL-2 5 days): 4-6 fold
Fold change in IFN-γ secretion (ZOL group/NaCl group) ([2]; Gingiva, Rag2−/− (Rag KO) mice, ZOL 500 μg/kg): 0.22-0.35 fold
Fold change in IFN-γ secretion (ZOL group/NaCl group) ([2]; Gingiva, WT mice, ZOL 500 μg/kg): 0.3-0.5 fold
ZOL-induced drop in IFN-γ ([2]; NK cells purified from splenocytes, Rag2−/− mice): 58-65%
ZOL-induced increase in IFN-γ ([2]; NK cells purified from splenocytes, WT mice): 20-90%
Fold change in IFN-γ secretion (ZOL group/NaCl group) ([2]; Spleen, Rag2−/− (Rag KO) mice, ZOL 500 μg/kg): 0.5-0.66 fold
Fold change in IFN-γ secretion (ZOL group/NaCl group) ([2]; Spleen, WT mice, ZOL 500 μg/kg): 2-3.4 fold
Fold change in IFN-γ secretion (ZOL group/NaCl group) ([2]; Spleen-purified NK cells, Rag2−/− (Rag KO) mice, ZOL 500 μg/kg): 0.35-0.42 fold
Fold change in IFN-γ secretion (ZOL group/NaCl group) ([2]; Spleen-purified NK cells, WT mice, ZOL 500 μg/kg): 1.2-1.9 fold
ZOL-induced decrease in IFN-γ ([2]; Rag2−/− mice): 65-78%
ZOL-induced decrease in IFN-γ ([2]; WT mice): 50-70%
secretion of IFN-γ after ZOL intake ([2]; spleen, spleen-purified NK cells and oral gingiva cells, Rag2−/− mice): blocked
ZOL-induced drop in IFN-γ ([2]; splenocytes, Rag2−/− mice): 34-50%
ZOL-induced increase in IFN-γ ([2]; splenocytes, WT mice): 100-240%
NK cell-mediated cytotoxicity after ZOL injections (st63 cells; BM, vs NaCl): significantly increased
NK cell-mediated cytotoxicity with ZOL (st63 cells; spleen and spleen-purified NK cells): blocked
ONJ [3]: no ONJ was seen

Lipopolysaccharide [LPS]
IFN-γ secretion (NK cells [4]): increasing
IFN-γ secretion (NK cells [5]; IL-2-treated WT NK cells + monocytes from Cox-2flox/flox;LysMCre/+ mice): increasing IFN-γ secretion significantly
amount of IFN-γ secreted by the NK cells (NK cells [5]; IL-2-treated WT NK cells + monocytes from control WT littermates): increased
NK cell cytotoxicity against wild type and Cox-2flox/flox;LysMCre/+ DCs [6]: decreased
NK cell-mediated cytotoxicity against OSCSCs (OSCSCs): loss
NK cells' ability to lyse YAC-1 cells (YAC-1 cells): complete shutdown
